Laboratory results reported in ChEMBL document CHEMBL1141810, “Excavatolides F-M, new briarane diterpenes from the gorgonian Briareum excavatum” (1999).
In brackets after ≈: the same amount, converted by molar mass.

Legend:
Format in all cases: functional
Conditions in all cases: read-out: ED50 (the source's name)
P388 = test: Cytotoxicity against mouse P388 cells by MTT assay
KB = test: Cytotoxicity against human KB cells by MTT assay
A549 = test: Cytotoxicity against human A549 cells by MTT assay
HT-29 = test: Cytotoxicity against human HT-29 cells by MTT assay

Compound	EC50 (P388) [µg/mL]	EC50 (KB) [µg/mL]	EC50 (A549) [µg/mL]	EC50 (HT-29) [µg/mL]
CCCC(=O)O[C@H]1C/C(C)=C\[C@@H]2OC(=O)[C@]3(C)O[C@]23[C@H](OC(C)=O)[C@H]2[C@@H](C)[C@@H](OC(C)=O)C[C@H](OC(C)=O)[C@]2(C)[C@@H]1OC(C)=O [EXCAVATOLIDE I]	> 50	> 50	> 50	> 50
CC(=O)O[C@H]1C[C@H](OC(C)=O)[C@@]2(C)[C@H]([C@H]1C)[C@@H](OC(C)=O)[C@]13O[C@@]1(C)C(=O)O[C@H]3/C=C(/C)C[C@H](OC(C)=O)[C@H]2OC(C)=O [EXCAVATOLIDE K]	0.9 (≈ 1.48 µM)	3.3 (≈ 5.42 µM)	3 (≈ 4.93 µM)	1.3 (≈ 2.14 µM)
CCCC(=O)O[C@H]1C[C@H](OC(C)=O)[C@@]2(C)[C@H]([C@H]1C)[C@@H](OC(C)=O)[C@]13O[C@@]1(C)C(=O)O[C@H]3/C=C(/C)C[C@H](OC(=O)CCC)[C@H]2OC(C)=O [EXCAVATOLIDE H]	> 50	> 50	> 50	> 50
CCCC(=O)O[C@H]1C[C@H](OC(C)=O)[C@@]2(C)[C@H]([C@H]1C)[C@@H](OC(C)=O)[C@]13O[C@@]1(C)C(=O)O[C@H]3/C=C(C)\C=C\[C@@H]2OC(C)=O [EXCAVATOLIDE F]	6.2 (≈ 10.8 µM)	7 (≈ 12.1 µM)	5.2 (≈ 9.02 µM)	5.5 (≈ 9.54 µM)
CC(=O)O[C@H]1C/C(C)=C\[C@@H]2OC(=O)[C@]3(C)O[C@]23[C@H](O)[C@H]2[C@@H](C)[C@@H](O)C[C@H](OC(C)=O)[C@]2(C)[C@@H]1O [EXCAVATOLIDE M]	0.001 (≈ 0.00207 µM)	1 (≈ 2.07 µM)	0.1 (≈ 0.207 µM)	2.2 (≈ 4.56 µM)
CCCC(=O)O[C@H]1C[C@H](OC(C)=O)[C@@]2(C)[C@H]([C@H]1C)[C@@H](OC(C)=O)[C@]13O[C@@]1(C)C(=O)O[C@H]3/C=C(/C)C[C@H](OC(C)=O)[C@H]2OC(C)=O [EXCAVATOLIDE J]	3.8 (≈ 5.97 µM)	6.5 (≈ 10.2 µM)	5.2 (≈ 8.17 µM)	5.2 (≈ 8.17 µM)
CC(=O)O[C@H]1C[C@H](OC(C)=O)[C@@]2(C)[C@H]([C@H]1C)[C@@H](OC(C)=O)[C@]13O[C@@]1(C)C(=O)O[C@H]3/C=C(/C)CC[C@H]2OC(C)=O [EXCAVATOLIDE G]	15.7 (≈ 28.5 µM)	> 50	22.8 (≈ 41.4 µM)	> 50
